Results as given in publication PMC10934500, “Exploring the Anti-Diabetic Potential of Quercetagitrin through Dual Inhibition of PTPN6 and PTPN9” (Nutrients, 2024).

Target: PTPN6 (Homo sapiens, UniProt P29350)
Assay: DiFMUP fluorescence phosphatase assay with recombinant enzyme purified from E. coli
Assay type: biochemical

PTPN6, sequence (P29350 whole entry): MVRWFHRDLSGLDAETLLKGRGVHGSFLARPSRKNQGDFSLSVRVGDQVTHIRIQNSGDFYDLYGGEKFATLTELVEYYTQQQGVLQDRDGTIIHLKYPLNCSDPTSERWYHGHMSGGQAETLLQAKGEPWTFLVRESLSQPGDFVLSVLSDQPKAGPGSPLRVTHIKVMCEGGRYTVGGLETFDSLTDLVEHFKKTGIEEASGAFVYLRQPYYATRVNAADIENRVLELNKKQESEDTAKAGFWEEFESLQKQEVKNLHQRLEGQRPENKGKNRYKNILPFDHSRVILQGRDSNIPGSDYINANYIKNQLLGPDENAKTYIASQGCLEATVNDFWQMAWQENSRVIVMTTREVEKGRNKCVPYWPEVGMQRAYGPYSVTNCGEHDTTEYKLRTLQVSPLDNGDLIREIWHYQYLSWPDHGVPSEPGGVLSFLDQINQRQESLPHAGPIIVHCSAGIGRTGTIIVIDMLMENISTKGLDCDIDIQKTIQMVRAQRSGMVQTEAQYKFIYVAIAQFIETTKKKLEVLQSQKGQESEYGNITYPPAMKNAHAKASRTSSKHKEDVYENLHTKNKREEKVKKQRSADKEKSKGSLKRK

In the case of `O=c1c(O)c(-c2ccc(O)c(O)c2)oc2cc(O[C@@H]3O[C@H](CO)[C@@H](O)[C@H](O)[C@H]3O)c(O)c(O)c12` [QG, quercetagitrin], the IC50 is reported as 1000 nM.
